Results reported in patent US9643982B2, “Fused tricyclic heterocyclic compounds as HIV integrase inhibitors” (Merck Sharp & Dohme Corp., priority 2013, dated 2017).

test system: HIV-1 (NL4-3 strain); test: Multiple round HIV-1 infection assay in MT4-GFP cells (Wild Type Cell Assay); type: cell-based; conditions: Human immunodeficiency virus 1, NL43; 0 % NHS (serum-free); MT4-GFP cells infected with HIV-1 NL4-3; read-out: Wild Type Cell Assay IP
Protocol: HIV-1 replication was monitored using MT4-gag-GFP clone D3 (hereafter designate MT4-GFP), which are MT-4 cells modified to harbor a GFP reporter gene, the expression of which is dependent on the HIV-1 expressed proteins tat and rev. Productive infection of an MT4-GFP cell with HIV-1 results in GFP expression approximately 24 h post-infection.
MT4-GFP cells were maintained at 37° C./5% CO2/90% relative humidity in RPMI 1640 supplemented with 10% fetal bovine serum, 100 U/ml penicillin/streptomycin, and 400 μg/ml G418 to maintain the reporter gene. For infections, MT4-GFP cells were placed in the same medium lacking G418 and infected overnight with HIV-1 (NL4-3 strain) virus at an approximate multiplicity of infection of 0.01 in the same incubation conditions.
Cells were then washed and resuspended in either RPMI 1640 supplemented with 10% normal human serum (NHS) or without NHS at 1.6×10^5 cells/mL (10% NHS or serum-free conditions) or in 100% normal human serum at 2×10^5 cells/mL (100% NHS conditions). Compound plates were prepared by dispensing compounds dissolved in DMSO into wells of 384 well poly D lysine-coated plates (0.2 μl/well) using an ECHO acoustic dispenser. Each compound was tested in a 10 point serial 3-fold dilution (typical final concentrations: 8.4 μM-0.42 nM). Controls included no inhibitor (DMSO only) and a combination of three antiviral agents (efavirenz, indinavir, and the integrase strand transfer inhibitor L-002254051 at final concentrations of 4 μM each). Cells were added (50 μL/well) to compound plates and the infected cells were maintained at 37° C./5% CO2/90% relative humidity.

`O=C(NCc1ccc(F)c(F)c1F)c1c2n3c(c(O)c1=O)C(=O)N(CC1CC1)C[C@H]3CC2` (single isomer, unassigned) [Compound 21] and `CC(C)(O)CN1C[C@@H]2CCc3c(C(=O)NCc4ccc(F)c(F)c4F)c(=O)c(O)c(n32)C1=O` (single isomer, unassigned) [Compound 23] are within 1.5-fold of each other in EC50: 3.1 nM for the first, 3.8 nM for the second.

Going from `CNC(=O)c1c2n3c(c(O)c1=O)C(=O)N(Cc1ccc(F)cc1)CC3CC2` (racemic) [Compound 17, 2-(4-fluorobenzyl)-8-hydroxy-N-methyl-1,7-dioxo-2,3,3a,4,5,7-hexahydro-1H-pyrazino[2,1,6-cd]indolizine-6-carboxamide] to `CCN1CC2CCc3c(C(=O)NCc4ccc(F)cc4F)c(=O)c(O)c(n32)C1=O` (racemic) [Compound 18, N-(2,4-difluorobenzyl)-2-ethyl-8-hydroxy-1,7-dioxo-2,3,3a,4,5,7-hexahydro-1H-pyrazino[2,1,6-cd]indolizine-6-carboxamide], the EC50 falls from 35 nM to 2.6 nM (13-fold).

First: CCN1C(=O)c2c(O)c(=O)c(C(=O)NCc3ccc(F)c(Cl)c3)c3n2[C@@H](CC3)[C@H]1OC (single isomer, unassigned) [Compound 26]
Second: CCN1C(=O)c2c(O)c(=O)c(C(=O)NCc3ccc(F)cc3F)c3n2C(CC3)C1OC (racemic) [Compound 25]
The EC50 of the first is 1.7-fold higher: 3.2 nM for the first, 1.9 nM for the second.

`O=C(NCc1ccc(F)cc1F)c1c2n3c(c(O)c1=O)C(=O)N(CCC(F)(F)F)C[C@@H]3CC2` (single isomer, unassigned) [Compound 20] and `CO[C@H](C)CN1C[C@H]2CCc3c(C(=O)NCc4ccc(F)cc4F)c(=O)c(O)c(n32)C1=O` (single isomer, unassigned) [Compound 22] are within 1.5-fold of each other in EC50: 3.8 nM for the first, 2.8 nM for the second.

Going from `CCN1C[C@@H]2C[C@@H](OC)c3c(C(=O)NCc4ccc(F)c(Cl)c4F)c(=O)c(O)c(n32)C1=O` (single isomer, unassigned) [Compound 34] to `CCN1C[C@@H]2C[C@@H](OC)c3c(C(=O)NCc4ccc(F)cc4F)c(=O)c(O)c(n32)C1=O` (single isomer, unassigned) [Compound 30], the EC50 falls from 2.9 nM to 1 nM (2.9-fold). The second is the more potent here.

`CN1CC2COCc3c(C(=O)NCc4ccc(F)cc4F)c(=O)c(O)c(n32)C1=O` (racemic) [Compound 1] and `CC(C)N1C[C@@H]2COCc3c(C(=O)NCc4ccc(F)cc4F)c(=O)c(O)c(n32)C1=O` (single isomer, unassigned) [Compound 3] are within 1.5-fold of each other in EC50: 9.2 nM for the first, 13 nM for the second.

Compared with `COCCC(C)N1CC2COCc3c(C(=O)NCc4ccc(F)cc4F)c(=O)c(O)c(n32)C1=O` (centres unmarked) [Compound 6], `COCCN1CC2COCc3c(C(=O)NCc4ccc(F)cc4F)c(=O)c(O)c(n32)C1=O` (racemic) [Compound 5] is 2.6-fold lower in EC50: 24 nM for the first, 9.2 nM for the second. The second is the more potent here.

First: CO[C@@H]1C[C@H]2CN(CC3CC3)C(=O)c3c(O)c(=O)c(C(=O)NCc4ccc(F)cc4F)c1n32 (single isomer, unassigned) [Compound 33]
Second: CCN1CC2CC(OC)c3c(C(=O)NCc4ccc(F)cc4F)c(=O)c(O)c(n32)C1=O (racemic) [Compound 29]
The EC50 of the first is 1.9-fold higher: 2.3 nM for the first, 1.2 nM for the second.

Going from `O=C(NCc1ccc(F)cc1F)c1c2n3c(c(O)c1=O)C(=O)N(Cc1cccnc1)CC3COC2` (racemic) [Compound 7] to `COc1ccc(CN2CC3COCc4c(C(=O)NCc5ccc(F)cc5F)c(=O)c(O)c(n43)C2=O)cc1` (racemic) [Compound 8], the EC50 rises from 9.6 nM to 23 nM (2.4-fold).

Compared with `CCN1CC2CC(O)c3c(C(=O)NCc4ccc(F)cc4F)c(=O)c(O)c(n32)C1=O` (racemic) [Compound 24, N-(2,4-difluorobenzyl)-2-ethyl-5,8-dihydroxy-1,7-dioxo-2,3,3a,4,5,7-hexahydro-1H-pyrazino[2,1,6-cd]indolizine-6-carboxamide], `CCN1CC2CC(C)c3c(C(=O)NCc4ccc(F)cc4F)c(=O)c(O)c(n32)C1=O` (single isomer, unassigned) [Compound 35, N-(2,4-difluorobenzyl)-2-ethyl-9-hydroxy-6-methyl-1,8-dioxo-2,3,3a,5,6,8-hexahydro-1H-pyrazino[2,1,6-cd]indolizine-7-carboxamide] is 1.8-fold lower in EC50: 2.2 nM for the first, 1.2 nM for the second. The second is the more potent here.

First: CC(C)N1CC2C(=O)N(C)Cc3c(C(=O)NCc4ccc(F)cc4F)c(=O)c(O)c(n32)C1=O (racemic) [Compound 16, N-(2,4-difluorobenzyl)-9-hydroxy-2-isopropyl-5-methyl-1,4,8-trioxo-1,2,3,3a,4,5,6,8-octahydro-2,3a1,5-triazaphenalene-7-carboxamide]
Second: COCCN1CC2CC(C)c3c(C(=O)NCc4ccc(F)cc4F)c(=O)c(O)c(n32)C1=O (single isomer, unassigned) [Compound 36]
The EC50 of the first is 4.4-fold higher: 17 nM for the first, 3.9 nM for the second. The second is the more potent here.

`CCO[C@H]1[C@H]2CCc3c(C(=O)NCc4ccc(F)cc4F)c(=O)c(O)c(n32)C(=O)N1CC` (single isomer, unassigned) [Compound 28] and `COCCN1C(=O)c2c(O)c(=O)c(C(=O)NCc3ccc(F)cc3F)c3n2[C@H](CC3)[C@@H]1OC` (single isomer, unassigned) [Compound 27] are within 1.5-fold of each other in EC50: 2.1 nM for the first, 2.3 nM for the second.

Going from `COCCN1CC2CCc3c(C(=O)NCc4c(F)cc(F)cc4OC)c(=O)c(O)c(n32)C1=O` (racemic) [Compound 19] to `COCCN1C[C@H]2C[C@H](OC)c3c(C(=O)NCc4ccc(F)cc4F)c(=O)c(O)c(n32)C1=O` (single isomer, unassigned) [Compound 32], the EC50 falls from 4.4 nM to 2.3 nM (1.9-fold).

`CC(C)N1C[C@@H]2COCc3c(-c4cnn(Cc5ccc(F)cc5F)c4)c(=O)c(O)c(n32)C1=O` (single isomer, unassigned) [Compound 15] and `CC(C)N1CC2COCc3c(-c4cnn(Cc5ccc(F)cc5F)c4)c(=O)c(O)c(n32)C1=O` (racemic) [Compound 14] are within 1.5-fold of each other in EC50: 234 nM for the first, 323 nM for the second.

`CC(C)N1C[C@@H]2COCc3c(-c4nnc(Cc5ccc(F)cc5F)s4)c(=O)c(O)c(n32)C1=O` (single isomer, unassigned) [Compound 13, 9-(5-(2,4-difluorobenzyl)-1,3,4-thiadiazol-2-yl)-7-hydroxy-5-isopropyl-3,3a,4,5-tetrahydro-1H-2-oxa-3a1,5-diazaphenalene-6,8-dione] and `CCN1C[C@H]2C[C@@H](OC)c3c(C(=O)NCc4ccc(F)cc4F)c(=O)c(O)c(n32)C1=O` (single isomer, unassigned) [Compound 31] are within 1.5-fold of each other in EC50: 5 nM for the first, 3.8 nM for the second.

Going from `CCN1CC2CC(C)c3c(C(=O)NCc4ccc(F)c(F)c4F)c(=O)c(O)c(n32)C1=O` (single isomer, unassigned) [Compound 37] to `CCO[C@@H]1C[C@H]2CN(CC)C(=O)c3c(O)c(=O)c(C(=O)NCc4ccc(F)cc4F)c1n32` (single isomer, unassigned) [Compound 38], the EC50 rises from 1.1 nM to 1.9 nM (1.7-fold).

same assay, conditions: Human immunodeficiency virus 1, NL43; 10 % NHS (normal human serum); MT4-GFP cells infected with HIV-1 NL4-3; read-out: Wild Type Cell Assay IP

First: CC(C)N1CC2COCc3c(C(=O)NCc4ccc(F)c(Cl)c4)c(=O)c(O)c(n32)C1=O (racemic) [Compound 10]
Second: CC(C)N1CC2COCc3c(C(=O)NCc4ccc(F)c(Cl)c4F)c(=O)c(O)c(n32)C1=O (racemic) [Compound 12]
The EC50 of the first is 2-fold higher: 100 nM for the first, 50 nM for the second. The second is the more potent here.

Compared with `CC(C)N1C[C@@H]2COCc3c(C(=O)NCc4ccc(F)c(F)c4F)c(=O)c(O)c(n32)C1=O` (single isomer, unassigned) [Compound 9], `Cc1c(F)ccc(CNC(=O)c2c3n4c(c(O)c2=O)C(=O)N(C(C)C)CC4COC3)c1F` (racemic) [Compound 11] is 5.8-fold higher in EC50: 20 nM for the first, 116 nM for the second. The first is the more potent here.

First: CC(C)CN1CC2COCc3c(C(=O)NCc4ccc(F)cc4F)c(=O)c(O)c(n32)C1=O (racemic) [Compound 4]
Second: CC(C)N1CC2COCc3c(C(=O)NCc4ccc(F)cc4F)c(=O)c(O)c(n32)C1=O (racemic) [Compound 2]
The EC50 of the first is 1.6-fold lower: 21 nM for the first, 33 nM for the second.
